From patent US11779661B2, “Theranostic nucleic acid binding fluorescent nanoprobes and uses thereof” (The General Hospital Corporation, priority 2016, dated 2023) come the findings set out here.

The experiment has as its system Bacterial Phage Lambda DNA. Nature of the experiment: In vitro nucleic acid binding fluorescence assay, Lambda DNA. Conditions: equivalent fluorochrome concentrations, FIG. 1F. The method, then:
Bacterial Phage Lambda DNA (Sigma-Aldrich), CpG DNA (Enzo Life, Plymouth Meeting, Pa.), Torula yeast RNA (Sigma-Aldrich) were completely dissolved in Tris-acetate-EDTA (TAE) buffer (pH=8) by gentle inversion overnight at 4° C. Lambda DNA, CpG DNA, yeast RNA stock solutions were characterized by spectrophotometry to determine the concentration and purity. Total mouse heart RNA was extracted from C57Bl6 mouse hearts using TRI Reagent (Sigma-Aldrich) and characterized with a NanoDrop spectrophotometer (Thermo Fisher) as described in Feng Y, Chen H, et al., J Biol Chem. 2015; 290: 26688-98. […] Fluorescence was measured with the GloMax-Multi Detection System and snap-in fluorescent optical kits (Promega, Madison, Wis.). EC50 was determined using the dose-response curve fitting function implemented in Prism (GraphPad, La Jolla, Calif.).

As for `CN1/C(=C/c2cc[n+](CCC[N+](C)(C)C)c3ccccc23)Sc2ccccc21` [TO-PRO 1], the “Fluorescence increase with DNA concentration” value was “substantially less increase”.

Turning to Cy5.5, the “Fluorescence increase with DNA concentration” value was “No fluorescence increase and none”.
